Test results: ChEMBL document CHEMBL1148534, “p38 MAP kinase inhibitors: metabolically stabilized piperidine-substituted quinolinones and naphthyridinones” (Bioorg Med Chem Lett, 2006)
pIC50: −log10 of the molar value.

Experiments:
[1] = Plasma clearance in rat; format: ADME, organism-based
[2] = Oral bioavailability in rat; format: ADME, organism-based; settings: in vivo
[3] = Half life in dog, iv; format: ADME, organism-based, Canis lupus familiaris; settings: in vivo
[4] = Volume of distribution in dog; format: ADME, organism-based, Canis lupus familiaris; settings: in vivo, read-out: Vdss
[5] = Plasma clearance in dog; format: ADME, organism-based, Canis lupus familiaris
[6] = Oral bioavailability in dog; format: ADME, organism-based, Canis lupus familiaris; settings: in vivo
[7] = Half life in rhesus monkey, iv; format: ADME, organism-based, Macaca mulatta; settings: in vivo
[8] = Volume of distribution in rhesus monkey; format: ADME, organism-based, Macaca mulatta; settings: in vivo, read-out: Vdss
[9] = Oral bioavailability in rhesus monkey; format: ADME, organism-based, Macaca mulatta; settings: in vivo
[10] = Plasma clearance in rhesus monkey; format: ADME, organism-based, Macaca mulatta
[11] = biological target: T1, Mitogen-activated protein kinase 14 (Homo sapiens, UniProt Q16539); test: Inhibition of P38 alpha MAPK
T1 sequence (Q16539 whole entry): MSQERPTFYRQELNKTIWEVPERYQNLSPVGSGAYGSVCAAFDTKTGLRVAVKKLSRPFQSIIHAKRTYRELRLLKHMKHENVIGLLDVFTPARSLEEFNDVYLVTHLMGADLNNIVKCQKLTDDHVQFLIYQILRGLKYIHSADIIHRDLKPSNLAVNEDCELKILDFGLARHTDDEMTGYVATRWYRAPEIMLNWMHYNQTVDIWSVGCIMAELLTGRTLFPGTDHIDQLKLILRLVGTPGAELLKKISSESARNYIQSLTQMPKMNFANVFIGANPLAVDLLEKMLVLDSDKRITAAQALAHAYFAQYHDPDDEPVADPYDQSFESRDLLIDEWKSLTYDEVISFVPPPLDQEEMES

[12] = biological target: T1, Mitogen-activated protein kinase 14; test: Inhibition of TNF alpha release in THP1 cells; format: functional, cell-based, THP-1
[13] = biological target: T1, Mitogen-activated protein kinase 14; test: Inhibition of LPS stimulated TNF alpha release in whole blood; format: functional, tissue-based
[14] = Volume of distribution in rat; format: ADME, organism-based; settings: in vivo, read-out: Vdss
[15] = Half life in rat, iv; format: ADME, organism-based; settings: in vivo

SMILES	clearance [1] [mL/min/kg]	bioavailability [2] [%]	half-life [3] [h]	Vd [4] [L/kg]	clearance [5] [mL/min/kg]	bioavailability [6] [%]	half-life [7] [h]	Vd [8] [L/kg]	bioavailability [9] [%]	clearance [10] [mL/min/kg]	pIC50 [11]	pIC50 [12]	pIC50 [13]	Vd [14] [L/kg]	half-life [15] [h]
CC(C)(C)N1CCC(c2cc3c(ccc(=O)n3-c3c(Cl)cccc3Cl)c(-c3ccc(F)cc3F)n2)CC1	32.3	62	15.5	23.8	20.5	99.3	6.5	21.6	23	41.5	9.29	9.16	8.28	24	9.05
CC(C)(C(=O)O)N1CCC(c2cc(-c3ccc(F)cc3Cl)c3ccc(=O)n(-c4c(Cl)cccc4Cl)c3c2)CC1	–	–	–	–	–	–	–	–	–	–	9.08	8.43	7.10	–	–
CC(C)(C)N1CC=C(c2cc(-c3ccc(F)cc3Cl)c3ccc(=O)n(-c4c(Cl)cccc4Cl)c3c2)CC1	–	–	–	–	–	–	–	–	–	–	8.94	9.13	7.29	–	–
C[C@H](C(=O)O)N1CCC(c2cc(-c3ccc(F)cc3Cl)c3ccc(=O)n(-c4c(Cl)cccc4Cl)c3c2)CC1	–	–	–	–	–	–	–	–	–	–	8.49	8.42	7.60	–	–
CC(C)N1C2CCC1CC(c1cc(-c3ccc(F)cc3Cl)c3ccc(=O)n(-c4c(Cl)cccc4Cl)c3c1)C2 (stereo not given)	18	44	–	–	–	–	–	–	–	–	9.29	9.00	8.07	5.23	3.36
CC(C)(C)N1CCC(c2cc3c(ccc(=O)n3-c3c(Cl)cccc3Cl)c(-c3ccccc3Cl)n2)CC1	25	66	5.42	15.1	37.6	9.35	–	–	–	–	8.85	–	8.17	10.1	5.1
COC(=O)C(C)N1CCC(c2cc(-c3ccc(F)cc3Cl)c3ccc(=O)n(-c4c(Cl)cccc4Cl)c3c2)CC1 (stereo not given)	–	–	–	–	–	–	–	–	–	–	8.09	8.89	7.55	–	–
CC(C)(C)N1CCC(c2cc(-c3ccc(F)cc3Cl)c3ccc(=O)n(-c4c(Cl)cccc4Cl)c3c2)CC1	14	47.7	5.59	23.8	26.8	83	13.6	52.8	49	52.9	9.51	9.57	8.59	3.84	3.5
COC(=O)C(C)(C)N1CCC(c2cc(-c3ccc(F)cc3Cl)c3ccc(=O)n(-c4c(Cl)cccc4Cl)c3c2)CC1	–	–	–	–	–	–	–	–	–	–	8.17	8.59	6.89	–	–
CC1(C)C=C(c2cc(-c3ccc(F)cc3Cl)c3ccc(=O)n(-c4c(Cl)cccc4Cl)c3c2)CC(C)(C)N1	30.1	36	–	–	–	–	–	–	–	–	9.59	8.48	7.62	7.32	3.17
CN1C2CCC1CC(c1cc(-c3ccc(F)cc3Cl)c3ccc(=O)n(-c4c(Cl)cccc4Cl)c3c1)C2 (stereo not given)	27	30	–	–	–	–	–	–	–	–	9.21	9.09	8.11	6.87	3.12
CC(C)(C)N1CCC(Oc2cc(-c3ccccc3Cl)c3ccc(=O)n(-c4c(Cl)cccc4Cl)c3c2)CC1	34.1	32.3	–	–	–	–	–	–	–	–	8.80	8.74	7.89	6.17	2.33
CC(C)(C)N1CCC(Oc2cc(-c3ccc(F)cc3F)c3ccc(=O)n(-c4c(F)cccc4F)c3c2)CC1	–	–	–	–	–	–	–	–	–	–	7.98	8.66	7.74	–	–
CC(C)(C)N1CCC(Oc2cc(-c3ccc(F)cc3F)c3ccc(=O)n(-c4c(Cl)cccc4Cl)c3c2)CC1	–	–	–	–	–	–	–	–	–	–	8.73	9.11	–	–	–
O=c1ccc2c(-c3ccc(F)cc3Cl)cc(C3CC4CCC(C3)N4)cc2n1-c1c(Cl)cccc1Cl (stereo not given)	37	13	–	–	–	–	–	–	–	–	9.35	9.05	7.84	6.2	2.56
C[C@@H](C(=O)O)N1CCC(c2cc(-c3ccc(F)cc3Cl)c3ccc(=O)n(-c4c(Cl)cccc4Cl)c3c2)CC1	59	0.11	–	–	–	–	–	–	–	–	8.89	8.49	7.55	0.7	0.44
CC(C)(C)N1CCC(c2cc(-c3ccc(F)cc3Cl)c3ccc(=O)n(-c4c(F)cccc4F)c3c2)CC1	18.5	57	–	–	–	–	9.55	28.6	31.5	35.1	9.52	9.38	9.00	3.77	9.96
CC(C)(C)N1CCC(c2cc(-c3ccccc3Cl)c3ccc(=O)n(-c4c(Cl)cccc4Cl)c3c2)CC1	–	–	–	–	–	–	–	–	–	–	10.00	9.00	8.19	–	–
CC(C)(C)N1CCC(c2cc3c(ccc(=O)n3-c3c(Cl)cccc3Cl)c(-c3ccc(F)cc3Cl)n2)CC1	39.6	67.3	–	–	–	–	5.32	22.1	33	47.5	9.42	8.80	8.28	11.4	3.69
CC(C)(C)N1CCC(c2cc(-c3ccc(F)cc3F)c3ccc(=O)n(-c4c(Cl)cccc4Cl)c3c2)CC1	11.9	69.3	19.8	8.99	5.5	36.2	9.7	26.2	56.5	29.2	9.85	8.77	8.62	3.82	4.13
CC(C)(C)N1CCC(Oc2cc(-c3ccc(F)cc3Cl)c3ccc(=O)n(-c4c(Cl)cccc4Cl)c3c2)CC1	–	–	–	–	–	–	–	–	–	–	8.15	8.62	7.79	–	–
